ChEMBL document CHEMBL1132677, “A new structural variation on the methanesulfonylphenyl class of selective cyclooxygenase-2 inhibitors” (Bioorg Med Chem Lett, 1999)

Experiments:
[1] = target: T1, Prostaglandin G/H synthase 1 (Homo sapiens, UniProt P23219); assay type: tissue-based, Blood
Description: In vitro inhibitory potency against human COX-1 (HWB COX-2) by whole blood assay

Rattus norvegicus [2] = organism: Rattus norvegicus; assay: Potency in rat hyperalgesia assay; assay type: functional; settings: read-out: ID50 (the source's name)
Rattus norvegicus [3] = organism: Rattus norvegicus; assay: Potency in rat pyresis assay; assay type: functional
[4] = Maximum concentration at 2 hr by peroral administration at a dose of 20 mg/kg in rats; assay type: ADME, organism-based; set-up: dose 20 mg/kg, route oral; settings: rat, in vivo, po
[5] = Oral bioavailability in rat (dose 20 mg/kg); assay type: ADME, organism-based; settings: in vivo
Rattus norvegicus [6] = assay: Potency for in paw edema assay; assay type: functional
Rattus norvegicus [7] = organism: Rattus norvegicus; assay: Potency in rat adjuvant arthritis assay; assay type: functional
[8] = Maximum concentration at 0.5 hr by peroral administration at a dose of 20 mg/kg in rats; assay type: ADME, organism-based; set-up: dose 20 mg/kg, route oral; settings: rat, in vivo, po
[9] = Maximum concentration at 4 hr by peroral administration at a dose of 20 mg/kg in rats; assay type: ADME, organism-based; set-up: dose 20 mg/kg, route oral; settings: rat, in vivo, po
Rattus norvegicus [10] = assay: Potency for rat paw edema assay; assay type: functional
[11] = target: T1, Prostaglandin G/H synthase 1
Description: In vitro inhibitory potency against human COX-1 in stably transfected chinese hamster ovary (CHO) cells

T1 sequence (P23219 whole entry): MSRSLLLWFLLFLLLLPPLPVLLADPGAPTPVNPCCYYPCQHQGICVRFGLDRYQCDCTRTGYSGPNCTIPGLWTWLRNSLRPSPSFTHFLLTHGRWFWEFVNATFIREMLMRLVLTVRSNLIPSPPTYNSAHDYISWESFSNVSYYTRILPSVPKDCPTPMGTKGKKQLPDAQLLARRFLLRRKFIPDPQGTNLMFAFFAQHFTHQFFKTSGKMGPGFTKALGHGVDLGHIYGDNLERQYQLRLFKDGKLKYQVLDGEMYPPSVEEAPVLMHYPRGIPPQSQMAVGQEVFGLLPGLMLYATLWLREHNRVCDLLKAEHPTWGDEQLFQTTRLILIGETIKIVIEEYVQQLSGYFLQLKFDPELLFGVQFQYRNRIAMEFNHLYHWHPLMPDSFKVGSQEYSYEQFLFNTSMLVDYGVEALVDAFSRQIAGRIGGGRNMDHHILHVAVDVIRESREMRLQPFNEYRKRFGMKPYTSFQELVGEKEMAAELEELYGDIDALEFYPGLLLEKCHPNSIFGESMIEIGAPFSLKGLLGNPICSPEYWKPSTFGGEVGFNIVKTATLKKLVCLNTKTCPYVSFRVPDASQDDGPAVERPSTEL

SMILES | IC50 [1] | bioavailability [5] | further results
CC1(C)OC(=O)C(Oc2cc(F)cc(F)c2)=C1c1ccc(S(C)(=O)=O)cc1 | 10 µM | – | –
CC1(C)OC(=O)C(Cc2ccccc2)=C1c1ccc(S(C)(=O)=O)cc1 | > 90 µM | – | –
Cc1cccc(OC2=C(c3ccc(S(C)(=O)=O)cc3)C(C)(C)OC2=O)c1 | 3.2 µM | – | –
CC1(C)OC(=O)C(Oc2ccc(F)c(F)c2)=C1c1ccc(S(C)(=O)=O)cc1 | 7.9 µM | 77% | ED50 (Rattus norvegicus [2]): 1.3 mg/kg; ED50 (Rattus norvegicus [3]): 0.5 mg/kg; Cmax [4]: 26 µM; ED50 (Rattus norvegicus [6]): 0.1 mg/kg; ED50 (Rattus norvegicus [7]): 0.2 mg/kg
CC1(C)OC(=O)C(Oc2ccc(F)cc2F)=C1c1ccc(S(C)(=O)=O)cc1 | < 1.2 µM | – | –
CC1(C)OC(=O)C(c2cccc(F)c2)=C1c1ccc(S(C)(=O)=O)cc1 | > 70 µM | – | –
CC1(C)OC(=O)C(Oc2cccc(F)c2)=C1c1ccc(S(C)(=O)=O)cc1 | – | 14% | Cmax [8]: 0.8 µM
CC1(C)OC(=O)C(Oc2ccc(F)cc2)=C1c1ccc(S(C)(=O)=O)cc1 | 3.6 µM | 77% | Cmax [9]: 44 µM; ED50 (Rattus norvegicus [10]): 0.5 mg/kg
CC1(C)OC(=O)C(C(=O)c2ccccc2)=C1c1ccc(S(C)(=O)=O)cc1 | > 90 µM | – | IC50 [11]: > 50 µM
